Experimental data from PMC3388044, “Probing of Exosites Leads to Novel Inhibitor Scaffolds of HCV NS3/4A Proteinase” (PLoS ONE, 2012).

These molecules were tested against T1, HCV NS3/4A (wild-type) (Hepatitis C virus genotype 1b, UniProt O92972) (assay: NS3/4A activity assay with FRET peptide substrate, wild-type enzyme). Details: Table S1; wild-type NS3/4A, FRET peptide substrate; read-out: NS3/4A IC50 range class 10 -100.
T1 construct: The NS3/4A construct represented the individual NS3 proteinase domain N-terminally fused with an NS4A co-factor; 6xHis; purchased AnaSpec (Fremont, CA)
Format: biochemical, HCV genotype 1b, strain HC-J4
From the text: Reagents were purchased from Sigma unless indicated otherwise. The FRET substrate Ac-DE-D(Edans)-EE-Abu-ψ-[COO]-AS-K(Dabsyl)-NH2, purified recombinant wild-type NS3/4A from HCV genotype 1b, strain HC-J4, and the mutants with the V36M, R155K, A156T, D168A and V170A resistance mutations were from AnaSpec (Fremont, CA). The NS3/4A construct represented the individual NS3 proteinase domain N-terminally fused with an NS4A co-factor and tagged with a 6xHis tag. NS3/4A was in active form and the pre-activation by pep-4A or pep4AK was not necessary. Pyroglutamic acid-Arg-Thr-Lys-Arg-7-amino-4-methylcoumarin was from Peptides International (Louisville, KY). West Nile virus NS2B-NS3 proteinase (strain NY99) was expressed, purified and refolded to restore its functional activity as described earlier. The pET15b-Den2-CF40-Gly-NS3pro 185 plasmid encoding the Dengue virus type 2 NS2B-NS3 protease was a kind gift of Dr. Subhash Vasudevan (Program in Emerging Infectious Diseases, DUKE-NUS Graduate Medical School, Singapore). DV NS2B-NS3 proteinase was expressed purified and refolded to restore its functional activity as described previously, [70]. The expression of the soluble C-terminally truncated human furin construct in Sf9 insect cells (an ovarian cell line from fall armyworm Spodoptera frugiperda; Invitrogen, Carlsbad, CA) infected with the recombinant baculovirus and purification of soluble furin from the medium were described earlier. Original human hepatocarcinoma Huh7 cells were obtained from ATCC (Manassas, VA).
The NS3/4A activity assay was performed at 37°C in triplicate in wells of a 96-well plate in 0.2 ml 50 mM HEPES, pH 7.5, containing 100 mM NaCl, 10 mM DTT, 20% glycerol, the Ac-DE-D(Edans)-EE-Abu-ψ-[COO]-AS-K(Dabsyl)-NH2 substrate (10 µM) and the NS3/4A enzyme (10 nM). Reaction velocity was monitored continuously at λex = 355 nm and λem = 500 nm for 10 min using a Spectramax Gemini EM fluorescence spectrophotometer (Molecular Devices, Sunnyvale, CA) and the initial rate of reaction v was recorded for each reaction. There was no significant additional absorption by compounds 1–8 we identified, which might interfere with NS3/4A assay. Compound stock solutions (10 mM) were made in 100% DMSO. Stocks were then diluted using the assay buffer. As a result, the final DMSO concentration was always below 1% in the assay reactions.
To measure the inhibitory potency of the compounds, their increasing concentrations were pre-incubated with the individual proteinases in the corresponding buffer for 30 min at ambient temperature. At least, 7–9 different concentrations were used for each inhibitor. The residual activity of the enzymes was then measured as above. The IC50 values of the inhibitory compounds were calculated by determining the concentrations of the compounds needed to inhibit 50% of the enzyme activity against the peptide substrate. GraphPad Prism was used as fitting software.

T1 sequence (O92972 1027-1208): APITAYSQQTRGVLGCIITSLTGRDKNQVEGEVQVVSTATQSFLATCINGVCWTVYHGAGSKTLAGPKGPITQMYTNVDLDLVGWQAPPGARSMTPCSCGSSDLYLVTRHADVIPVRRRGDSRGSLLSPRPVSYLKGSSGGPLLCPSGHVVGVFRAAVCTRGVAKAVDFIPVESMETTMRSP

Row | SMILES | IC50 [µM]
1 | O=C(N/N=C\c1cc(Br)cc(Br)c1O)N/N=C/c1cc(Br)cc(Br)c1O [Compound 20] | 10 to 100
2 | O=C(O)c1c(Br)c(Br)c(Br)c(Br)c1C(=O)Nc1cc([N+](=O)[O-])ccc1O [Compound 22] | 10 to 100
3 | Sc1ccccc1Nc1nc(SCc2ccccc2)nc2n[nH]c(Cc3nc4ccccc4s3)c12 [Compound 34] | 10 to 100
4 | Clc1ccc(Nc2nc(SCc3ccccc3)nc3n[nH]c(Cc4nn[nH]n4)c23)cc1 [Compound 40] | 10 to 100
5 | O=C1c2cc(Cl)ccc2-c2ccc(N=Cc3ccc(Cl)c(Cl)c3)cc21 [Compound 16] | 10 to 100
6 | Cc1nn(C(N)=S)c(C)c1N=Nc1cccc(Cl)c1Cl [Compound 28] | 10 to 100
7 | O=C(CNC(=O)Nc1ccc(Cl)c(Cl)c1)NNC(=O)Nc1ccc(F)c(Cl)c1 [Compound 23] | 10 to 100
8 | Oc1ccc(C=NCCN=Cc2ccc(O)cc2O)c(O)c1.[Ni] [Compound 14] | 10 to 100
9 | O=[N+]([O-])c1ccc(O)c(C=Nc2cc(Cl)c(Cl)cc2NS(=O)(=O)c2ccccc2)c1 [Compound 37] | 10 to 100
10 | Brc1ccc2c(ccc3c2nnc2ncnn23)c1 [Compound 30] | 10 to 100
11 | O=S(=O)(Nc1c(Cl)c(Cl)c(NS(=O)(=O)c2ccccc2)c(Cl)c1Cl)c1ccccc1 [Compound 38] | 10 to 100
12 | O=C1CS(=O)(=O)CN1c1ccc(Cl)c(Cl)c1 [Compound 25] | 10 to 100
13 | CC(C)N(C(=O)CSc1c(Cl)c(Cl)c(Cl)c(Cl)c1Cl)C(C)C [Compound 19] | 10 to 100
14 | Cc1c(N=Nc2cccc(Cl)c2Cl)c(-c2ccccc2)nn1C(=S)S [Compound 27] | 10 to 100
15 | FC(F)(F)c1cccc(-c2nc3nc(Cl)c(Cl)nc3[nH]2)c1 [Compound 18] | 10 to 100
16 | Cc1cc(S(=O)(=O)Nc2nc3cc(-c4ccc(Cl)cc4)sc3c(=O)n2N)c(S)cc1Cl [Compound 33] | 10 to 100
17 | O=C(Nc1ccc(Cl)c(Cl)c1)c1ccc(C(=O)Nc2ccc(Cl)c(Cl)c2)cc1 [Compound 21] | 10 to 100
18 | O=C1C=C(Nc2ccc(Cl)cc2Cl)C(=O)C=C1Nc1ccc(Cl)cc1Cl [Compound 15] | 10 to 100
19 | O=S(=O)(Nc1cc(Cl)c(Cl)cc1N=Cc1ccc(N(CCCl)CCCl)cc1F)c1ccccc1 [Compound 36] | 10 to 100
20 | Cc1nn(C(=S)S)c(C)c1N=Nc1cccc(Cl)c1Cl [Compound 26] | 10 to 100
21 | C(=C\c1ccccc1)/Cn1nc(-c2ccccc2)nc1-c1cnccn1 [Compound 32] | 10 to 100
22 | Clc1ccc(OCc2nn3c(CCCCc4nnc5sc(COc6ccc(Cl)cc6Cl)nn45)nnc3s2)c(Cl)c1 [Compound 35] | 10 to 100
23 | Oc1c(Br)cc(CN(Cc2cc(Br)c(O)c(Br)c2)C2CCCCC2)cc1Br [Compound 13] | 10 to 100

Same assay, conditions: wild-type NS3/4A 10 nM, Ac-DE-D(Edans)-EE-Abu-ψ-[COO]-AS-K(Dabsyl)-NH2 10 µM, 30 min pre-incubation; read-out: NS3/4A IC50

Row | SMILES | IC50 [µM]
24 | O=C(c1ccco1)c1c(C(F)(F)F)n([O-])c2cc(Cl)c(Cl)cc2[n+]1=O [Compound 11] | 6.5
25 | S=c1[nH]nc(CCCCc2n[nH]c(=S)n2/N=C/c2ccc(Cl)cc2Cl)n1/N=C/c1ccc(Cl)cc1Cl [Compound 10] | 5.25
26 | FC(F)(F)c1nc2nc(Cl)c(Cl)nc2s1 [Compound 9] | 4.5
